According to patent publication US20030166290A1, “Low formaldehyde producing blood diluent” (priority 2002, published 2003):

Test: Formaldehyde production in test blood diluents containing antimicrobial agents (EPA Method 8315A)
Type: physicochemical
Settings: when employed in the blood diluent of the invention
Method: Diluent components into which the listed antimicrobials were added were:
Each test diluent was assayed for formaldehyde production within about two weeks from time of production to determine if formaldehyde is produced. Different lots of the final diluent formulation were monitored for formaldehyde concentration over a year's time. […] This method entails derivitizing the diluent sample with 2,4-dinitrophenylhydrazine to convert the carbonyl groups of aldehydes present to the hydrazones. Each carbonyl compound present in the sample forms a separate hydrazone derivative and these individual derivatives are extracted from the diluent solution using an organic solvent. The individual hydrazone derivatives are separated and quantified by HPLC (High Performance Liquid Chromatography).

Structure (SMILES): O=[N+]([O-])C1(Br)COCOC1 [5-bromo-5-nitro-1,3-dioxane]
- formaldehyde produced or contained: ≤ 1 ppm
